Earlier results as cited in patent publication US12557843B2, “Other than cannabinoids, flavonoids, and terpenes” (priority 2020, dated 2026).

Experiments:
CB2 cannabinoid receptor = CB2 cannabinoid receptor (Homo sapiens, UniProt P34972)
acetylcholinesterase = acetylcholinesterase (Homo sapiens, UniProt P22303)
[1] = tested on: monoamine oxidase enzyme (MAO)

Chain of acetylcholinesterase (P22303 32-614, species assumed): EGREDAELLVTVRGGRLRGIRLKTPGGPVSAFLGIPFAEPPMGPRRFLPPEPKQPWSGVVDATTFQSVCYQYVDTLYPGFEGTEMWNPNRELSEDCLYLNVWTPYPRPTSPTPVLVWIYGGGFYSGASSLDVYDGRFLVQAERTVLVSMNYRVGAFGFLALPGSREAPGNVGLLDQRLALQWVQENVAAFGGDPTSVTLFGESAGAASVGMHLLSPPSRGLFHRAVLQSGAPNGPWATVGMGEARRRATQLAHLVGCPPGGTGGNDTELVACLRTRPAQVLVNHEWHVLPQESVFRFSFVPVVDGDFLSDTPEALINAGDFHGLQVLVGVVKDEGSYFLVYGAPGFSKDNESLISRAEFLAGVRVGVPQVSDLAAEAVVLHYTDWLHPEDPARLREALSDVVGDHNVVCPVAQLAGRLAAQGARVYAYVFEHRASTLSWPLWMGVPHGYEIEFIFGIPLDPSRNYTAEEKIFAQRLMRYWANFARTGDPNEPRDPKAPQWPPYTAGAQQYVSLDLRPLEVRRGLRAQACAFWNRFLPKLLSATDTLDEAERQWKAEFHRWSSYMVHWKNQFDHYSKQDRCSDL
Chain of CB2 cannabinoid receptor (P34972 whole entry): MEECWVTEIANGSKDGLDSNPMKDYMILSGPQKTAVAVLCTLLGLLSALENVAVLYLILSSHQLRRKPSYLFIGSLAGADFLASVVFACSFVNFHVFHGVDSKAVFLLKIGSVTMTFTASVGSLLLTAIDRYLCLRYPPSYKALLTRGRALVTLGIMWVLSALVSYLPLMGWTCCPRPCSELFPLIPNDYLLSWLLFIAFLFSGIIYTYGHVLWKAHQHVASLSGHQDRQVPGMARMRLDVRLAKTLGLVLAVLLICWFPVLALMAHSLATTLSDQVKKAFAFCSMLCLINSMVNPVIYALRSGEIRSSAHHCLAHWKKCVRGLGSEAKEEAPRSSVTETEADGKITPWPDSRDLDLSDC

In the case of `C=C1CC/C=C(\C)CC[C@@H]2[C@@H]1CC2(C)C` [B-caryophyllene, β-caryophyllene], the “CB2 cannabinoid receptor activity” value (CB2 cannabinoid receptor) is listed as “CB2 cannabinoid receptor agonist” and the “effects proven in animal models” value (laboratory animals; β-caryophyllene, animal models, not yet in humans) is listed as “anti-inflammatory and analgesic effects”.

In the case of `CC1=CCC2CC1C2(C)C` (stereo not drawn) [A-pinene, α-pinene], the acetylcholinesterase inhibition (acetylcholinesterase) is given as “acetylcholinesterase inhibitor”.

For `CC12CCC(CC1)C(C)(C)O2` [Eucalyptol, 1,8-cineol], the “in vitro anti-leukaemia activity” value (leukaemia) is given as “in vitro anti-leukaemia properties”.

In the case of `O=c1cc(-c2ccc(O)cc2)oc2cc(O)cc(O)c12` [apigenin], the “action on the GABA receptors” value (GABA receptors) is given as “anxiolytic and sedative”.

In the case of `COc1cc(-c2cc(=O)c3c(O)c(C/C=C(\C)CCC=C(C)C)c(O)cc3o2)ccc1O` [cannaflavin-A], the “effect on PGE-2” value (PGE-2) is listed as “inhibits” and the “anti-inflammatory power compared with aspirin” value (PGE-2; relative to aspirin) is listed as “exponentially more powerful than aspirin”.

For `C=CC(C)(O)CCC=C(C)C` (stereo not drawn) [Linalool], the “effects in laboratory animals” value (laboratory animals; linalool, mediated by adenosine A2A and glutamate receptors) is given as “analgesic effects”.

In the case of `C=CC(=C)CCC=C(C)C` [Myrcene], the “properties shown in studies on laboratory animals” value (laboratory animals; myrcene, laboratory animals) is listed as “sedative, hypnotic, analgesic and muscle relaxant properties”.

In the case of `O=c1c(O)c(-c2ccc(O)c(O)c2)oc2cc(O)cc(O)c12` [quercitin, quercetin], the “effect on monoamine oxidase enzyme (MAO)” value [1] is given as “inhibits”.

In the case of `C=C(C)[C@H]1CC=C(C)CC1` [Limonene], the “apoptosis (cell death)” value (breast cancer cells) is listed as “produces apoptosis” and the “effects suggested by studies on laboratory animals” value (laboratory animals; limonene, rise of serotonin and dopamine in the brain) is listed as “anxiolytic effects”.
